System: HT-29 cells
Experiment: HT29 cells 0FBS assay in vitro: TNF-α/SMAC mimetic/zVAD-FMK induced necroptosis, CellTiter-Glo cell viability (RIP1 inhibitory activity)
Assay type: cell-based
Settings: Homo sapiens, FBS free medium, TNF-α (10 ng/ml) + SMAC mimetic (6 uM) + zVAD-FMK (10 μM), 20 hours, geometric mean EC50
Description: Protocol for HT29 Cells 0FBS Assay In Vitro
• Cell line: HT-29 (ATCC® HTB-38™) • Culture medium: McCOY's 5A, Gibco, Cat No. 16600-082 • FBS, Gibco, Cat No. 10099-141C • Trypsin: Gibco, Cat No. 25200-056 • DMSO: Sigma, Cat No. 67-68-5, 1L • Assay plate: Corning #3903 • Compound dilution plate: Corning #3357 • Inducers: TNFα, GenScript, Cat No. Z01001-50, • SmacM, Cat. No., HY-15989, MedChemExpress (MCE) • Z_VAD FMK, TargetMol, T6013 • Cell Titer-Glo® Luminescent Cell Viability Assay Kit: Promega, Cat No. G7573 • EnVision: PerkinElmer, 2105-0010
2. Cell Seeding of HT-29 Cells
1) HT-29 cells were checked every day to make sure they are healthy and growing as expected. They were split sub-culturing when were approximately 80% confluent.
2) First pre-warm the culture medium of McCOY's 5A medium (Gibco, Cat No. 16600-082) with 10% FBS (Gibco, Cat No. 10099-141C) in 37° C. water bath for at least 30 min.
3) Growing cells to desired level of confluency 80% in a T75 flask, aspirate the medium, and wash with warm PBS two times.
4) Add 2-3 ml fresh warm trypsin (Gibco, Cat No. 25200-056) solution. Transfer the flask to a 37° C. incubator.
5) After 5 minutes, tap the side of the flask, and examine the flask under a microscope for lifting. If necessary, return the cells to the incubator for an additional 5-10 minutes, with occasional tapping, until lifting is complete.
6) Quickly neutralize the trypsin reaction by adding 6-9 ml cell culture medium, then transfer the cells to sterile 15 ml conical tubes. Pellet the cells by centrifugation at 300×g for 7 minutes, then decant the supernatant.
7) Resuspend the cells in fresh cell culture medium. Do cell counting with hemocytometer.
8) Seed 100 μl of 5,000 cells into each well of the sterile 96-well cell culture plate (Corning 3903) and culture overnight at 37° C. with 5% CO2.
3. Compounds Titration and Treatment of HT-29 Cells
1) All batches of compounds (CPDs0 (e.g., compound 1-169) were dissolved in DMSO (Dimethyl sulfoxide) as 20 mM stock solution.
2) Take 3 ul 20 mM stock solution of CPDs to […] DMSO and mix well, continue the titration ratio of 1:3 (20 ul CPDs+40 ul DMSO), e.g., to give solutions of CPDS at 6.6 mM, 2.2 mM, etc., till the 10 points end.
3) Take out assay plates with HT-29 cells from incubator, remove all culture medium then wash 1 time with 1×PBS, and change fresh McCOY's 5A medium of FBS free with a cocktail of TNF-α (10 ng/ml), the SMAC mimetic (6 uM) and zVAD-FMK (10 μM) to stimulate the HT-29 cells to increase pRIPK1 levels and necroptosis.
4) Add 0.5 μL of the diluted compound to the corresponding 96-well assay plates.
5) Incubate the assay plates for 20 hours at 37° C. with 5% CO2.
4. Performing Cell Viability Detection of HT-29 Cells after Treated with Compounds
1) The CellTiter-Glo® Luminescent Cell Viability Assay was employed to detect the ATP levels of viable HT-29 cells.
2) Equilibrate the CellTiter-Glo® buffer and the lyophilized substrate to room temperature prior to use.
3) Resuspend the CellTiter-Glo® substrate with CellTiter-Glo® buffer, mix by gently vortexing to obtain a homogeneous solution.
4) Pipette 20 μl the enzyme/substrate mixture by multi-channel pipette into the 96-well assay plates from step 5) under the Compounds titration and treatment stage.
5) Place the plates on an orbital shaker and mix the contents for 3 minutes to induce cell lysis.
6) Then allow the plates to incubate at room temperature for 10 minutes to stabilize luminescent signal.
7) Read and record luminescence signal with EnVision.
8) The geometric mean EC50 of the compounds were calculated from 10 points response dose with duplicate. In Table 2, activity is provided as follows: +++=0.1 nM≤EC50<100 nM; ++=100 nM≤EC5 1000 nM; […].

| Structure (SMILES) | EC50 [nM] |
| --- | --- |
| CNC(=O)c1c(C)nn(-c2cc(OC3CN(C(=O)N4N=CC[C@H]4c4cc(F)cc(C#N)c4)C3)c(F)cn2)c1C [Compound 80, (S)-1-(4-((1-(5-(3-cyano-5-fluorophenyl)-4,5-dihydro-1H-pyrazole-1-carbonyl)azetidin-3-yl)oxy)-5-fluoropyridin-2-yl)-N,3,5-trimethyl-1H-pyrazole-4-carboxamide] | 0.1 to 100 |
| Cc1cc(F)cc([C@H]2CC=NN2C(=O)N2CC(Oc3cc(-n4nc(C)c(C(=O)O)c4C)ncc3F)C2)c1 [Compound 143, (R) 1-(5-fluoro-4-((1-(5-(3-fluoro-5-methylphenyl)-4,5-dihydro-1H-pyrazole-1-carbonyl)azetidin-3-yl)oxy)pyridin-2-yl)-3,5-dimethyl-1H-pyrazole-4-carboxylic acid] | 100 to 1000 |
| Cc1c(Cl)nn(C)c1-c1cc(OC2CN(C(=O)N3N=CC[C@H]3c3cc(F)cc(C#N)c3)C2)c(F)cn1 [Compound 50, (S)-3-(1-(3-((2-(3-chloro-1,4-dimethyl-1H-pyrazol-5-yl)-5-fluoropyridin-4-yl)oxy)azetidine-1-carbonyl)-4,5-dihydro-1H-pyrazol-5-yl)-5-fluoro benzonitrile] | 0.1 to 100 |
| Cc1nn(-c2cc(OC3CN(C(=O)N4N=CC[C@H]4c4cc(F)cc(F)c4)C3)c(Cl)cn2)c(C)c1C(N)=O [Compound 160, (S)-1-(5-chloro-4-((1-(5-(3,5-difluorophenyl)-4,5-dihydro-1H-pyrazole-1-carbonyl)azetidin-3-yl)oxy)pyridin-2-yl)-3,5-dimethyl-1H-pyrazole-4-carboxamide] | 0.1 to 100 |
| Cc1nn(-c2cc(OC3CN(C(=O)N4N=CC[C@H]4c4cc(F)cc(F)c4)C3)c(Cl)cn2)c(C)c1C#N [Compound 159, (S)-1-(5-chloro-4-((1-(5-(3,5-difluorophenyl)-4,5-dihydro-1H-pyrazole-1-carbonyl)azetidin-3-yl)oxy)pyridin-2-yl)-3,5-dimethyl-1H-pyrazole-4-carbonitrile] | 0.1 to 100 |
| Cc1cc(F)cc(C2CC=NN2C(=O)N2CC(Oc3cc(-c4c(C)cnn4C)ncc3F)C2)c1 (stereo not shown) [Compound 130, (3-((2-(1,4-dimethyl-1H-pyrazol-5-yl)-5-fluoropyridin-4-yl)oxy)azetidin-1-yl)(5-(3-fluoro-5-methylphenyl)-4,5-dihydro-1H-pyrazol-1-yl)methanone] | 0.1 to 100 |
| Cc1ncsc1-c1cc(OC2CN(C(=O)N3N=CC[C@H]3c3cncc(F)c3)C2)c(F)cn1 [Compound 64, (S)-(3-((5-fluoro-2-(4-methylthiazol-5-yl)pyridin-4-yl)oxy)azetidin-1-yl)(5-(5-fluoropyridin-3-yl)-4,5-dihydro-1H-pyrazol-1-yl)methanone] | 0.1 to 100 |
| Cc1noc(C)c1-c1cc(OC2CN(C(=O)N3N=CC[C@H]3c3cc(F)cc(C#N)c3)C2)c(F)cn1 [Compound 89, (S)-3-(1-(3-((2-(3,5-dimethylisoxazol-4-yl)-5-fluoropyridin-4-yl)oxy)azetidine-1-carbonyl)-4,5-dihydro-1H-pyrazol-5-yl)-5-fluorobenzonitrile] | 0.1 to 100 |
| Cc1cnn(C)c1-c1cc(OC2CN(C(=O)N3N=CCC3c3cccnc3)C2)c(F)cn1 (stereo not shown) [Compound 99, (3-((2-(1,4-dimethyl-1H-pyrazol-5-yl)-5-fluoropyridin-4-yl)oxy)azetidin-1-yl)(5-(pyridin-3-yl)-4,5-dihydro-1H-pyrazol-1-yl)methanone] | 0.1 to 100 |
| Cc1c(C#N)nn(C)c1-c1cc(OC2CN(C(=O)N3N=CC[C@H]3c3cncc(F)c3)C2)c(F)cn1 [Compound 65, (S)-5-(5-fluoro-4-((1-(5-(5-fluoropyridin-3-yl)-4,5-dihydro-1H-pyrazole-1-carbonyl)azetidin-3-yl)oxy)pyridin-2-yl)-1,4-dimethyl-1H-pyrazole-3-carbonitrile] | 0.1 to 100 |
| Cn1ncc(C#N)c1-c1cc(OC2CN(C(=O)N3N=CC[C@H]3c3cncc(F)c3)C2)c(F)cn1 [Compound 26, (S)-5-(5-fluoro-4-((1-(5-(5-fluoropyridin-3-yl)-4,5-dihydro-1H-pyrazole-1-carbonyl)azetidin-3-yl)oxy)pyridin-2-yl)-1-methyl-1H-pyrazole-4-carbonitrile] | 0.1 to 100 |
| Cc1nn(-c2cc(OC3CN(C(=O)N4N=CC[C@H]4c4ccccc4)C3)c(F)cn2)c(C)c1S(N)(=O)=O [Compound 113, (S)-1-(5-fluoro-4-((1-(5-phenyl-4,5-dihydro-1H-pyrazole-1-carbonyl)azetidin-3-yl)oxy)pyridin-2-yl)-3,5-dimethyl-1H-pyrazole-4-sulfonamide] | 0.1 to 100 |
| Cc1nn(-c2cc(OC3CN(C(=O)C4=NNCC4c4cc(F)cc(F)c4)C3)c(F)cn2)c(C)c1C(N)=O (stereo not shown) [Compound 162, 1-(4-((1-(4-(3,5-difluorophenyl)-4,5-dihydro-1H-pyrazole-3-carbonyl)azetidin-3-yl)oxy)-5-fluoropyridin-2-yl)-3,5-dimethyl-1H-pyrazole-4-carb oxamide] | 0.1 to 100 |
| CCNC(=O)c1c(C)nn(-c2cc(OC3CN(C(=O)N4N=CC[C@H]4c4cc(F)cc(C#N)c4)C3)c(F)cn2)c1C [Compound 87, (S)-1-(4-((1-(5-(3-cyano-5-fluorophenyl)-4,5-dihydro-1H-pyrazole-1-carbonyl)azetidin-3-yl)oxy)-5-fluoropyridin-2-yl)-N-ethyl-3,5-dimethyl-1H-pyrazole-4-carboxamide] | 0.1 to 100 |
| Cc1cnn(C)c1-c1csc(OC2CN(C(=O)N3N=CC[C@H]3c3cc(F)cc(F)c3)C2)n1 [Compound 146, (S)-(5-(3,5-difluorophenyl)-4,5-dihydro-1H-pyrazol-1-yl)(3-((4-(1,4-dimethyl-1H-pyrazol-5-yl)thiazol-2-yl)oxy)azetidin-1-yl)methanone] | 0.1 to 100 |
| Cc1cnn(C)c1-c1cc(OC2CN(C(=O)N3N=CC[C@H]3c3cncc(C#N)c3)C2)c(F)cn1 [Compound 42, (S)-5-(1-(3-((2-(1,4-dimethyl-1H-pyrazol-5-yl)-5-fluoropyridin-4-yl)oxy)azetidine-1-carbonyl)-4,5-dihydro-1H-pyrazol-5-yl)nicotinonitrile] | 0.1 to 100 |
| Cc1ncn(C)c1-c1cc(OC2CN(C(=O)N3N=CC[C@H]3c3cc(F)cc(C#N)c3)C2)c(F)cn1 [Compound 22, (S)-3-(1-(3-((2-(1,4-dimethyl-1H-imidazol-5-yl)-5-fluoropyridin-4-yl)oxy)azetidine-1-carbonyl)-4,5-dihydro-1H-pyrazol-5-yl)-5-fluorobenzonitrile] | 0.1 to 100 |
| Cc1nn(-c2cc(OC3CN(C(=O)N4N=CCC4c4cc(F)cc(Cl)c4)C3)c(F)cn2)c(C)c1C(N)=O (stereo not shown) [Compound 117, 1-(4-((1-(5-(3-chloro-5-fluorophenyl)-4,5-dihydro-1H-pyrazole-1-carbonyl)azetidin-3-yl)oxy)-5-fluoropyridin-2-yl)-3,5-dimethyl-1H-pyrazole-4-carboxamide] | 0.1 to 100 |
| Cc1nsc(C)c1-c1cc(OC2CN(C(=O)N3N=CC[C@H]3c3cc(F)cc(C#N)c3)C2)c(F)cn1 [Compound 31, (S)-3-(1-(3-((2-(3,5-dimethylisothiazol-4-yl)-5-fluoropyridin-4-yl)oxy)azetidine-1-carbonyl)-4,5-dihydro-1H-pyrazol-5-yl)-5-fluorobenzonitrile] | 0.1 to 100 |

— US20240294508A1, “RIP1 MODULATORS INCLUDING AZETIDINE CYCLIC UREAS, PREPARATIONS, AND USES THEREOF” (SIRONAX LTD., priority 2021, published 2024)
